Active and inactive are the calls of the source. Rule as the data show it, for most assays here: actives have a measured Kd and inactives only a lower limit.
What was measured:
[1] = biological target: T1, Bone morphogenetic protein receptor type-2 (Homo sapiens, UniProt Q13873)
T1 sequence (Q13873 whole entry): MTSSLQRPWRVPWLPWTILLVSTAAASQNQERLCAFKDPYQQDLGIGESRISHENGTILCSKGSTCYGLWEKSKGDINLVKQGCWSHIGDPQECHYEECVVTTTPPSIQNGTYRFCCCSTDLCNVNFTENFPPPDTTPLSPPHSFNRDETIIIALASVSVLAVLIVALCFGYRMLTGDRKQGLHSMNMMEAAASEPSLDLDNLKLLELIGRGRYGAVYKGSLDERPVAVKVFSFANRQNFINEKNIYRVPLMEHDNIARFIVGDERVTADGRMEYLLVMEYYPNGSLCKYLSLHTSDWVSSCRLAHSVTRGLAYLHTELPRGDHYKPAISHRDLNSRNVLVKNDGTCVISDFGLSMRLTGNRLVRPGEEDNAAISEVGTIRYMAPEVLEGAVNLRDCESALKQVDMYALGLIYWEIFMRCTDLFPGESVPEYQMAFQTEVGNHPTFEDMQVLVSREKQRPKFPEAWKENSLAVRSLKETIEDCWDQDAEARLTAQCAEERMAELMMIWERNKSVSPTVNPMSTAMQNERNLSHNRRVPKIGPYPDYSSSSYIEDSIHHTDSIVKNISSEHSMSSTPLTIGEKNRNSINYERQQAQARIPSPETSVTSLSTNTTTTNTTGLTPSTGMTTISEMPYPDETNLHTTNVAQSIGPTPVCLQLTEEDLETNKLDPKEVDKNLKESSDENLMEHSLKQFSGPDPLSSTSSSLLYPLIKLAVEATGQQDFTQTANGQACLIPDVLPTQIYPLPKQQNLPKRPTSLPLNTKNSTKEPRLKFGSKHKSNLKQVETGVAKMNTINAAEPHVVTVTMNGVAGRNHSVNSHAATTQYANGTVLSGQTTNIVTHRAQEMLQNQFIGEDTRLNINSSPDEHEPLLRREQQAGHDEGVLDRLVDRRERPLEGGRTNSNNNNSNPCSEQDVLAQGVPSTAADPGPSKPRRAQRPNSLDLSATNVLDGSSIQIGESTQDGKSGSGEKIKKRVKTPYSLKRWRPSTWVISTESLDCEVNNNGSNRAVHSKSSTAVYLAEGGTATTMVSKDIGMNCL

[2] = biological target: Casein kinase I isoform epsilon (Homo sapiens, UniProt P49674)
Casein kinase I isoform epsilon, sequence (P49674 whole entry, canonical isoform): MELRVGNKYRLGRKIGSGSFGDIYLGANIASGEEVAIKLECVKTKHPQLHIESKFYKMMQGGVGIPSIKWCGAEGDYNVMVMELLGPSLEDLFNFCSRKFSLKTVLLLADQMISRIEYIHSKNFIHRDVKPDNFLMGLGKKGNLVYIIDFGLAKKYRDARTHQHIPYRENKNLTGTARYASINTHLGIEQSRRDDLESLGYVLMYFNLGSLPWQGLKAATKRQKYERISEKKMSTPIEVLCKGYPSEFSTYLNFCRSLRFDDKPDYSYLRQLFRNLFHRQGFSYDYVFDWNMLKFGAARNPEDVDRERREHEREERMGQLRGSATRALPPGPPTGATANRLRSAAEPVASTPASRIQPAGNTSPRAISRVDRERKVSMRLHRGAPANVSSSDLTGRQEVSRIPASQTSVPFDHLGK

[3] = biological target: Casein kinase II subunit alpha' (Homo sapiens, UniProt P19784)
Casein kinase II subunit alpha', sequence (P19784 whole entry): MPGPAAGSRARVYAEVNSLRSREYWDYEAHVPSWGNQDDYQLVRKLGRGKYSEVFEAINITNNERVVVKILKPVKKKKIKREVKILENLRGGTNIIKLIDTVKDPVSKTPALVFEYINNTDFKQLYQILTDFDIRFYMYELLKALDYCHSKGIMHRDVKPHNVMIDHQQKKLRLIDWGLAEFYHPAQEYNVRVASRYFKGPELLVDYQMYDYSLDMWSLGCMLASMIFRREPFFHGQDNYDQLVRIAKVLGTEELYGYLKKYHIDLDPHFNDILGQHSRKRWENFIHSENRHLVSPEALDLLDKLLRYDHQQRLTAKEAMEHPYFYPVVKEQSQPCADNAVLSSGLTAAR

dCTP pyrophosphatase 1 = biological target: T2, dCTP pyrophosphatase 1 (Homo sapiens, UniProt Q9H773)
T2 sequence (Q9H773 whole entry): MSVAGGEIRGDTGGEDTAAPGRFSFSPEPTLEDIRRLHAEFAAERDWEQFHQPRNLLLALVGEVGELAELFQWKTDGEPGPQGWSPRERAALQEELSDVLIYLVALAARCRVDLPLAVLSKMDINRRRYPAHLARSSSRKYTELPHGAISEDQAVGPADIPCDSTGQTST

[4] = biological target: Dual specificity tyrosine-phosphorylation-regulated kinase 1A (Homo sapiens, UniProt Q13627)
[5] = biological target: Serine/threonine-protein kinase/endoribonuclease IRE1 (Homo sapiens, UniProt O75460)
Serine/threonine-protein kinase/endoribonuclease IRE1, sequence (O75460 whole entry): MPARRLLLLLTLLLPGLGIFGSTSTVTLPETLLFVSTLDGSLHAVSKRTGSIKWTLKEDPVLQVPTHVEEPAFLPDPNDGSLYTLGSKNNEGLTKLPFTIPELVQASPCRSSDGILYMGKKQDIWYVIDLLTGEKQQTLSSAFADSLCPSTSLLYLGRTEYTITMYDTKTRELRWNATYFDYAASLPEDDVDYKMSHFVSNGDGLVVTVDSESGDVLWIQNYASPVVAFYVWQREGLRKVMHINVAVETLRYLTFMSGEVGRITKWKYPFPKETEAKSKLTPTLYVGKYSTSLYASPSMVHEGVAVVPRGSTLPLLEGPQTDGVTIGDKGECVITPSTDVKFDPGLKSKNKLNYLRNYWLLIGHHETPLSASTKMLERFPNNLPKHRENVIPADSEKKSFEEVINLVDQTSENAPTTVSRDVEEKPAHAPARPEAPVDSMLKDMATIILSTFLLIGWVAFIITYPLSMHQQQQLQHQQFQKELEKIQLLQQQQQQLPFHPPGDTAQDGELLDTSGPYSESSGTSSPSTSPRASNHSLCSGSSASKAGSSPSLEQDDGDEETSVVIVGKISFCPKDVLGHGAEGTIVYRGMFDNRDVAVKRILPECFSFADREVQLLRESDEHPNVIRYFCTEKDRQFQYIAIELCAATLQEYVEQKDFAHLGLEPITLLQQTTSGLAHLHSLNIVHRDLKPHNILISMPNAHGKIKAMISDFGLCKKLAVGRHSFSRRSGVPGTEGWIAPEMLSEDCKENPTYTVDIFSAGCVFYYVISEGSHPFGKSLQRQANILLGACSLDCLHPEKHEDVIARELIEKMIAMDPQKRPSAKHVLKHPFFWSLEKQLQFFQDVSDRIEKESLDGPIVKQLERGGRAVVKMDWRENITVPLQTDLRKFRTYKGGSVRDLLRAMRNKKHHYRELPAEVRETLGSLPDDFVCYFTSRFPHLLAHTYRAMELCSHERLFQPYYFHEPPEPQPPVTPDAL

[6] = biological target: T3, Electron transfer flavoprotein subunit beta (Homo sapiens, UniProt P38117)
T3 sequence (P38117 whole entry): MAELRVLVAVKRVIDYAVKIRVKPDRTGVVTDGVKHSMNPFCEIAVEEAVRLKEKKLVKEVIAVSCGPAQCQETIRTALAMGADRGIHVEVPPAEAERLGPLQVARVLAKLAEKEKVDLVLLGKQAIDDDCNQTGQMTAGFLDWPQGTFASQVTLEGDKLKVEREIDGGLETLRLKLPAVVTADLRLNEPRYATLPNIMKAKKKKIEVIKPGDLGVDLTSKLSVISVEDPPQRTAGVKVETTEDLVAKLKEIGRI

[7] = biological target: T4, Serine/threonine-protein kinase NLK (Homo sapiens, UniProt Q9UBE8)
T4 sequence (Q9UBE8 whole entry): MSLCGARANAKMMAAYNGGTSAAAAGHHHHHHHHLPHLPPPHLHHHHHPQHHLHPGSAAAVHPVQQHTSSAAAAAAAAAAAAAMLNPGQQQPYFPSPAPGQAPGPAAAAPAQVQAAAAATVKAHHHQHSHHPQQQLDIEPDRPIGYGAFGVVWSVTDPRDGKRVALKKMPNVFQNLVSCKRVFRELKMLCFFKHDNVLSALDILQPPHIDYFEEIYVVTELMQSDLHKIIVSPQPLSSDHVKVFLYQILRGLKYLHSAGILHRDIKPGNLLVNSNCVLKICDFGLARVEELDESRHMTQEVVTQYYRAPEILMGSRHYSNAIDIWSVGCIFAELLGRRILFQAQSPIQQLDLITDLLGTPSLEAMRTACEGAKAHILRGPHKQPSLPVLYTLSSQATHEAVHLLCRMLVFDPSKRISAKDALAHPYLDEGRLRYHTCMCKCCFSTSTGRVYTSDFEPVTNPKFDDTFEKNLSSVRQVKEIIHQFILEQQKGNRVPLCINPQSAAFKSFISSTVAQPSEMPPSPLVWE

[8] = biological target: T5, Bifunctional phosphoribosylaminoimidazole carboxylase/phosphoribosylaminoimidazole succinocarboxamide synthetase (Homo sapiens, UniProt P22234)
T5 sequence (P22234 whole entry): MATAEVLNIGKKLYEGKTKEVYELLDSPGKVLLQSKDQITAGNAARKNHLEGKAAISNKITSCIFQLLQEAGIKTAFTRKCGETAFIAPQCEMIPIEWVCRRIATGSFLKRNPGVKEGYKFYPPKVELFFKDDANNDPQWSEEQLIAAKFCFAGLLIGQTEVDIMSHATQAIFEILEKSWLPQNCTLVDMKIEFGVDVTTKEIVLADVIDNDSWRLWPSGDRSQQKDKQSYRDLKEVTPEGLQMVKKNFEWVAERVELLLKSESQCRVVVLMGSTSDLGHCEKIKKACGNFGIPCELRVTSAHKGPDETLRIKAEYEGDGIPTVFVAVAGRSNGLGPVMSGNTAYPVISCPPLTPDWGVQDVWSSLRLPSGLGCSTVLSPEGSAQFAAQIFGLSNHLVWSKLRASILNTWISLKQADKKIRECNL

[9] = biological target: Protein kinase C beta type (Homo sapiens, UniProt P05771)
Protein kinase C beta type, sequence (P05771 whole entry): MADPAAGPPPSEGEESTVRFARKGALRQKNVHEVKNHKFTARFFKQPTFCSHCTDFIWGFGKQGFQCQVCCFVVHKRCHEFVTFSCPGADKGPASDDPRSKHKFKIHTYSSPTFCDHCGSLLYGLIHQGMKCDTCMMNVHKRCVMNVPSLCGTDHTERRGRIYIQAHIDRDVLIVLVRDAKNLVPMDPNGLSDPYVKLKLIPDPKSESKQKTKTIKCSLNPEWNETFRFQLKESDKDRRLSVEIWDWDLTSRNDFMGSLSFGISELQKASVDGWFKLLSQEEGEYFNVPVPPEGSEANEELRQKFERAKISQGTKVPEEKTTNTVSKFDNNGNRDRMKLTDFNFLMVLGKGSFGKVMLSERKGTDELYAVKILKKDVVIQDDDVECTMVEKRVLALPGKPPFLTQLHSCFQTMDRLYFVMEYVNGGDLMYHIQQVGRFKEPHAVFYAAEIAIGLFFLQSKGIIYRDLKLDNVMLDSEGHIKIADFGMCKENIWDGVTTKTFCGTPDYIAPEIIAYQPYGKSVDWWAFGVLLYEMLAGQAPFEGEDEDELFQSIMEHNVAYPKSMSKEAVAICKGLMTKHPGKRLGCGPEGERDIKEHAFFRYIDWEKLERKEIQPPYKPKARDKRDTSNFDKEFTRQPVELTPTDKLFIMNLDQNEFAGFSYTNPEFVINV
Also: in the data inactive means no Kd found up to 30 µM.

| Kd [1] | Kd [2] | Kd [3] | Kd (dCTP pyrophosphatase 1) | Kd [4] | Kd [5] | Kd [6] | Kd [7] | Kd [8] | Kd [9] | SMILES |
| --- | --- | --- | --- | --- | --- | --- | --- | --- | --- | --- |
| > 30 µM (inactive) | > 30 µM (inactive) | > 30 µM (inactive) | > 30 µM (inactive) | > 30 µM (inactive) | > 30 µM (inactive) | > 30 µM (inactive) | > 30 µM (inactive) | > 30 µM (inactive) | > 30 µM (inactive) | CCCS(=O)(=O)Nc1ccc(F)c(C(=O)c2c[nH]c3ncc(-c4ccc(Cl)cc4)cc23)c1F [VEMURAFENIB] |
| > 30 µM (inactive) | > 30 µM (inactive) | > 30 µM (inactive) | > 30 µM (inactive) | > 30 µM (inactive) | > 30 µM (inactive) | > 30 µM (inactive) | > 30 µM (inactive) | > 30 µM (inactive) | > 30 µM (inactive) | CC[C@@H]1C(=O)N(C)c2cnc(Nc3ccc(C(=O)N[C@H]4CC[C@H](N5CCN(CC6CC6)CC5)CC4)cc3OC)nc2N1C(C)C [VOLASERTIB] |
| > 30 µM (inactive) | > 30 µM (inactive) | > 30 µM (inactive) | > 30 µM (inactive) | > 30 µM (inactive) | > 30 µM (inactive) | > 30 µM (inactive) | > 30 µM (inactive) | > 30 µM (inactive) | > 30 µM (inactive) | CCn1c(=O)c(-c2cc[nH]n2)cc2c(C)nc(N)nc21 [VOXTALISIB] |
| > 30 µM (inactive) | > 30 µM (inactive) | 7.15 µM (active) | > 30 µM (inactive) | > 30 µM (inactive) | > 30 µM (inactive) | > 30 µM (inactive) | 0.027 µM | > 30 µM (inactive) | > 30 µM (inactive) | O=C(Nc1ccc(-c2ccnc(Nc3ccc(N4CCOCC4)cc3)n2)cc1)C1CCCN1 (stereo not given) [XL-019] |

— ChEMBL document CHEMBL3991601, “The target landscape of clinical kinase drugs” (Science, 2017)
